According to patent publication US4935529A, “Cytoxic substances from the marine cyanophyte hormothamnion enteromorphoides grunow” (State of Oregon acting by and through the Oregon State …, priority 1989, dated 1990):
Values after ≈ are worked out from the molar mass of the structure shown. “Also recorded” adds a separate entry of the source.

Key:
several human cell lines = test: Cytotoxicity / growth inhibition of several human cell lines; type: cell-based; settings: in words
P-388 = test: Inhibition of cell growth, P-388; type: cell-based
Protocol: (§1) Inhibition of Cell Growth and Macromolecule Biosynthesis in -Several
(§2) Cancerous Human Cell Lines by Hormothamnione (1)
(§3) ^a ID50 is the drug concentration required to inhibit cell growt
(§4) to 50% of control levels.
(§5) Macromolecule biosynthesis in the presence of hormothamnion was measured via radioactive precursor incorporation studies using HL-60 and KB cell lines.

HL-60 = test: Inhibition of cell growth, HL-60; type: cell-based, human
Protocol: as §1, §2, §3, §4, §5

DNA synthesis, HL-60 = test: Inhibition of DNA biosynthesis in HL-60 (3H-thymidine incorporation); type: cell-based; settings: Homo sapiens, 3H-thymidine pulse label, read-out: ID50 DNA
Protocol: (§6) ^b The percentages of macromolecule biosynthesis inhibition were
(§7) calculated from the specific activities of incorporated precursors (c-e)
(§8) into 10^6 cells in drug treated as versus control cells. ID50
(§9) values were obtained by plotting the logarithmic drug concentrations
(§10) against the percentage inhibition of macromolecule biosynthesis.
(§11) ^c Exponentially growing cells pulse labeled with 1 μCi of ^3
(§12) Hthymidine (16.6 Ci/mmole) per ml of cell suspension.
as §5

RNA synthesis, HL-60 = test: Inhibition of RNA biosynthesis in HL-60 (5-3H-uridine incorporation); type: cell-based; settings: Homo sapiens, 5-3H-uridine pulse label, read-out: ID50 RNA
Protocol: as §6, §7, §8, §9, §10
(§13) ^d Exponentially growing cells pulse labeled with 2 μCi [5^3
(§14) Huridine (28 Ci/mmole) per ml of cell suspension.
as §5

Protein synthesis, HL-60 = test: Inhibition of protein biosynthesis in HL-60 (3H-L-leucine incorporation); type: cell-based; settings: Homo sapiens, 3H-L-leucine pulse label, read-out: ID50 Protein
Protocol: as §6, §7, §8, §9, §10
(§15) ^e Exponentially growing cells pulse labeled with 1 μCi of ^3
(§16) HL-leucine (130 Ci/mmole) per ml of cell suspension.
as §5

DNA synthesis, KB = test: Inhibition of DNA biosynthesis in KB (3H-thymidine incorporation); type: cell-based; settings: Homo sapiens, 3H-thymidine pulse label, read-out: ID50 DNA
Protocol: as §6, §7, §8, §9, §10, §11, §12, §5

RNA synthesis, KB = test: Inhibition of RNA biosynthesis in KB (5-3H-uridine incorporation); type: cell-based; settings: Homo sapiens, 5-3H-uridine pulse label, read-out: ID50 RNA
Protocol: as §6, §7, §8, §9, §10, §13, §14, §5

Protein synthesis, KB = test: Inhibition of protein biosynthesis in KB (3H-L-leucine incorporation); type: cell-based; settings: Homo sapiens, 3H-L-leucine pulse label, read-out: ID50 Protein
Protocol: as §6, §7, §8, §9, §10, §15, §16, §5

RNA synthesis = test: Macromolecule biosynthesis: inhibition of RNA synthesis (mode of action); type: cell-based, human; settings: in words
Protocol: as §6, §7, §8, §9, §10, §13, §14, §5

Bacillus subtilus = test: Paper disc-agar plate antimicrobial test; type: cell-based
gram positive = test: Gram positive antimicrobial activity; type: cell-based; settings: in words
Solubility properties = type: physicochemical; settings: relative to the natural product; in words

**Q.** With `COc1cc(O)c2c(=O)c(C)c(/C=C/c3cc(O)cc(O)c3)oc2c1OC` [compound of formula (3)] as the compound, how does the “inhibited the growth of several human cell lines” value (several human cell lines) read?
**A.** Its value is “inhibited the growth of several human cell lines”.

**Q.** And the “effect on growth compared with hormothamnion” value (several human cell lines; relative to hormothamnion)?
**A.** Its value is “less than observed with hormothamnion”.

**Q.** With `COc1c(OC)c(O)c2c(=O)c(C)c(/C=C/c3cc(O)cc(O)c3)oc2c1OC` [hormothamnion] as the compound, how does the IC50 (P-388; P388, P-388, read-out: ID50 Cell Growth) read?
**A.** The IC50 was 0.0046 µg/mL (≈ 0.0115 µM).

**Q.** What about the “cytotoxic agent to P388 lymphocytic leukemia” value (P-388; in words) of the same compound?
**A.** Its value is “potent”.

**Q.** What about the IC50 (HL-60; Homo sapiens, read-out: ID50 Cell Growth) of the same compound?
**A.** The IC50 was 0.0001 µg/mL (≈ 0.00025 µM).

**Q.** And the “cytotoxic agent to HL-60 human promyelocytic leukemia” value (HL-60; in words)?
**A.** Its value is “potent”.

**Q.** What about the IC50 (DNA synthesis, HL-60) of the same compound?
**A.** The IC50 was 0.3 µg/mL (≈ 0.749 µM).

**Q.** And the IC50 (RNA synthesis, HL-60)?
**A.** Its IC50 is 0.001 µg/mL (≈ 0.0025 µM).

**Q.** What about the IC50 (Protein synthesis, HL-60) of the same compound?
**A.** Its IC50 is > 0.5 µg/mL.

**Q.** And the IC50 (DNA synthesis, KB)?
**A.** Its IC50 is 0.53 µg/mL (≈ 1.32 µM).

**Q.** What about the IC50 (RNA synthesis, KB) of the same compound?
**A.** Its IC50 is 0.14 µg/mL (≈ 0.35 µM).

**Q.** What about the IC50 (Protein synthesis, KB) of the same compound?
**A.** The IC50 was > 0.5 µg/mL.

**Q.** What about the “cytotoxin to several human cancerous cell lines” value (several human cell lines) of the same compound?
**A.** Its value is “potent cytotoxin”.

**Q.** And the “inhibition of RNA synthesis (mode of cytotoxic action)” value (RNA synthesis)?
**A.** Its value is “appears to operate via inhibition of RNA synthesis; also recorded: A major mode of cytotoxic action of hormothamnion appears to be by inhibition of RNA synthesis”.

**Q.** And the “inhibition of RNA synthesis (mode of cytotoxic action)” value (RNA synthesis; listed as Hormothamnion)?
**A.** The value was “selective inhibition of RNA synthesis”.

**Q.** What about the zone of inhibition at 25 µg/disc (Bacillus subtilus; 25 μg per 6 mm paper disc) of the same compound?
**A.** The zone of inhibition at 25 µg/disc was 8 mm.

**Q.** What about the zone of inhibition at 100 µg/disc (Bacillus subtilus; 100 μg per 6 mm paper disc) of the same compound?
**A.** Its zone of inhibition at 100 µg/disc is 10 mm.

**Q.** What about the “gram positive antimicrobial activity” value (gram positive) of the same compound?
**A.** Its value is “minimal”.

**Q.** With `COc1c(OC)c(OC(C)=O)c2c(=O)c(C)c(/C=C/c3cc(OC(C)=O)cc(OC(C)=O)c3)oc2c1OC` [derivative (2)] as the compound, how does the solubility properties (Solubility properties) read?
**A.** Its solubility properties is “more favorable”.
